Data: patent US11542255B2, “Sulfonylureas and sulfonylthioureas as NLRP3 inhibitors” (Inflazome Limited, priority 2017, dated 2023)
Where a name gives a salt, the structure may show the parent alone.

Legend:
[1] = PK protocol, intravenous administration; format: in vivo, male Sprague Dawley rats; details: male, Sprague Dawley, rat, plasma, dose (mg/kg); for Vd: read-out: Vdss
Method: Pharmacokinetic parameters were determined in male Sprague Dawley rats (Charles River, UK, 250-350 g; or Vital River Laboratory Animal Technology Co Ltd, Beijing, China, 7-9 weeks old). Animals were individually housed during the study and maintained under a 12 h light/dark cycle. Animals had free access to food and water except that some orally dosed animals were food deprived overnight prior to the study.
For intravenous administration, compounds were formulated as a solution in water or […] in 2 mL/kg dosing volume and administered via tail vein. For oral administration, compounds were formulated as a solution in water or DMSO:water [10:90] in 5 mL/kg dosing volume and administered orally.
Serial blood samples (about 120-300 μL) were taken from each animal at each of 8 time-points post dose (0.083, 0.25, 0.5, 1, 2, 4, 8 and 24 h) or at each of 12 time-points post dose (0.03, 0.1, 0.17, 0.25, 0.5, 1, 2, 4, 6, 8, 12 and 24 h) or pre-dose and at each of 9 time-points post dose (0.25, 0.5, 1, 2, 4, 6, 8, 12 and 24 h). Samples were held on ice for no longer than 30 minutes before centrifugation (10,000 rpm (8,385 g) for 3 minutes; or 5,696 rpm (3,0009 for 15 minutes) for plasma generation. Plasma was frozen on dry ice prior to boanalysis. PK parameters were generated from LC-MS/MS data using Dotmatics or Phoenix WinNonlin 6.3 software.

NLRP3 [2] = biological target: T1, NLRP3 (Homo sapiens, UniProt Q96P20); assay: THP-1 cells pyroptosis assay (LPS + nigericin, resazurin readout); format: cell-based; design: Seed THP-1 cells (25,000 cells/well) containing 1.0 μg/ml LPS in 40 μl of RPMI medium; host or cells: THP-1 cells; details: NLRP3 inhibitory activity, 1.0 μg/ml LPS, 5 μM nigericin
How it was run: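 LPS-primed (1 μg/ml) THP-1 cells, 25,000/well in serum-free RPMI, given compound (8-point half-log, 10 μM top; 0.1% DMSO) for 3 h at 37 °C, then nigericin 5 μM for 1 h. Viability by resazurin (100 μM, 1-2 h), Ex 560/Em 590 nm; IC50 from 4-parameter variable-slope fit.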

NLRP3 [3] = biological target: T1, NLRP3; assay: Human whole blood IL1β release assay (LPS + nigericin, AlphaLisa IL-1β); format: cell-based; design: Human whole blood in Li-heparin tubes was obtained from healthy donors from a volunteer donor panel; from tissue; host or cells: human whole blood from healthy donors; details: NLRP3 inhibitory activity, 1 μg/ml LPS, 10 μM nigericin, IL-1β release, read-out: HWB IC50
How it was run: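 Donor human whole blood (Li-heparin) was primed with 1 μg/mL LPS while incubated with compound (8-point half-log, 10 μM top, 0.1% DMSO) for 3 h at 37° C., then stimulated with 10 μM nigericin for 1 h. Supernatant IL-1β measured by AlphaLISA; IC50 from 4-parameter nonlinear fit.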

T1 sequence (Q96P20 whole entry): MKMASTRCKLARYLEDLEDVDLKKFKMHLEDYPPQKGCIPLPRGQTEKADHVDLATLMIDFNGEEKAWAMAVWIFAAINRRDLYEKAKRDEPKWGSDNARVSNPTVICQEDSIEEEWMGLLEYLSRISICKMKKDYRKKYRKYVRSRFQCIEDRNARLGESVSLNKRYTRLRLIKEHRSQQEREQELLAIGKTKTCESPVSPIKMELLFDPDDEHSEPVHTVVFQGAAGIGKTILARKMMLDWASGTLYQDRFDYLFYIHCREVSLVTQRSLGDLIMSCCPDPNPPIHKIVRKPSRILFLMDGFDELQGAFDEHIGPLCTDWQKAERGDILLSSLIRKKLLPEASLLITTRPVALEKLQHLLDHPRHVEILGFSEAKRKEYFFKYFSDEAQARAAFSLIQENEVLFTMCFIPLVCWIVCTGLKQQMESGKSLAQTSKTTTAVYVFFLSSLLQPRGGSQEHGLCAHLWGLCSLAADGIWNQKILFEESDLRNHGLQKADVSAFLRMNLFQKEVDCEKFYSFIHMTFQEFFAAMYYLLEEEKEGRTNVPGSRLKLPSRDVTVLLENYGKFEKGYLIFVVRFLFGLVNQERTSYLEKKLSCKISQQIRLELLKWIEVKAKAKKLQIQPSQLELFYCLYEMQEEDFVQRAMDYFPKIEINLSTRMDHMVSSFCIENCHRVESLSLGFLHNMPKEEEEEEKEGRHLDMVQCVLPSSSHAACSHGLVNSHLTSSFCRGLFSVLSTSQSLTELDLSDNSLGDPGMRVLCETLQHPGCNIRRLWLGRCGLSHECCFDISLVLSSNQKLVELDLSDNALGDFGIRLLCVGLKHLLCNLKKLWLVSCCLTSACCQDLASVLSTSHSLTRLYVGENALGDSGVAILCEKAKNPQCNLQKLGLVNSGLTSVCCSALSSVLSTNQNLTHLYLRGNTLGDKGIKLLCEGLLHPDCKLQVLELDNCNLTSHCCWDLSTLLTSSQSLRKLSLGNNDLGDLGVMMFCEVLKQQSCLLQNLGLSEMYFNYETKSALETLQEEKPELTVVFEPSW

AUC [1] | clearance [1] | half-life [1] | Vd [1] | IC50 (NLRP3 [2]) | IC50 (NLRP3 [3]) | Structure (SMILES)
2780 ng·h/mL | 8.5 mL/min/kg | 2.4 h | 0.51 L/kg | < 40 nM | < 400 nM | CCC(c1cc(S(=O)(=O)NC(=O)Nc2c3c(cc4c2CCC4)CCC3)nn1C)N(C)C (single isomer, unassigned; enantiomer 2) [Example 72, 5-(1-(Dimethylamino)propyl)-N-((1,2,3,5,6,7-hexahydro-s-indacen-4-yl)carbamoyl)-1-methyl-1H-pyrazole-3-sulfonamide, Enantiomer 2]
1130 ng·h/mL | 37 mL/min/kg | 1.3 h | 1.32 L/kg | < 40 nM | < 400 nM | CN(C)CCn1nc(S(=O)(=O)NC(=O)Nc2c3c(cc4c2CCC4)CCC3)cc1CN(C)C [Example 3, 1-(2-(Dimethylamino)ethyl)-5-((dimethylamino)methyl)-N-((1,2,3,5,6,7-hexahydro-s-indacen-4-yl)carbamoyl)-1H-pyrazole-3-sulfonamide]
3780 ng·h/mL | 4.4 mL/min/kg | 1.6 h | 0.12 L/kg | 40 to 160 nM | 400 to 800 nM | CN(C)CCn1nc(S(=O)(=O)NC(=O)Nc2c3c(cc4c2CCC4)CCC3)cc1C(C)(C)O [Example 4, 1-(2-(Dimethylamino)ethyl)-N-((1,2,3,5,6,7-hexahydro-s-indacen-4-yl)carbamoyl)-5-(2-hydroxypropan-2-yl)-1H-pyrazole-3-sulfonamide]
7970 ng·h/mL | 3.5 mL/min/kg | 1.5 h | 0.39 L/kg | < 40 nM | < 400 nM | CCn1nc(S(=O)(=O)NC(=O)Nc2c3c(cc4c2CCC4)CCC3)cc1CN(C)C [Example 52, 5-((Dimethylamino)methyl)-1-ethyl-N-((1,2,3,5,6,7-hexahydro-s-indacen-4-yl)carbamoyl)-1H-pyrazole-3-sulfonamide]
4440 ng·h/mL | 3.8 mL/min/kg | 3.5 h | 0.38 L/kg | < 40 nM | < 400 nM | CC(c1cc(S(=O)(=O)NC(=O)Nc2c3c(cc4c2CCC4)CCC3)nn1C)N(C)C (centres unmarked) [Example 77, 5-(1-(Dimethylamino)ethyl)-N-((1,2,3,5,6,7-hexahydro-s-indacen-4-yl)carbamoyl)-1-methyl-1H-pyrazole-3-sulfonamide]
2490 ng·h/mL | 6.7 mL/min/kg | 1 h | 0.47 L/kg | 40 to 160 nM | 400 to 800 nM | CCN(C)Cc1cc(S(=O)(=O)NC(=O)Nc2c3c(cc4c2CCC4)CCC3)nn1C [Example 84, 5-((Ethyl(methyl)amino)methyl)-N-((1,2,3,5,6,7-hexahydro-s-indacen-4-yl)carbamoyl)-1-methyl-1H-pyrazole-3-sulfonamide]
 |  |  |  | < 40 nM | 400 to 800 nM | CCn1nc(S(=O)(=O)NC(=O)Nc2c3c(cc4c2CCO4)CCC3)cc1CN(C)C [Example 184]
 |  |  |  | 160 to 640 nM | 1600 to 3200 nM | CCn1nc(S(=O)(=O)NC(=O)Nc2c3c(cc4c2OCC4)CCC3)cc1CN(C)C [Example 185]

Further lines, the compound ahead of its results:

Structure (SMILES) | AUC [1] | clearance [1] | half-life [1] | Vd [1] | IC50 (NLRP3 [2]) | IC50 (NLRP3 [3])
CC(c1cc(S(=O)(=O)NC(=O)Nc2c3c(cc4c2CCC4)CCC3)nn1C)N1CCC1 (single isomer, unassigned; enantiomer 2) [Example 27, 5-(1-(Azetidin-1-yl)ethyl)-N-((1,2,3,5,6,7-hexahydro-s-indacen-4-yl)carbamoyl)-1-methyl-1H-pyrazole-3-sulfonamide, Sodium Salt (Enantiomer 2)] | 3900 ng·h/mL | 4.3 mL/min/kg | 1.1 h | 0.33 L/kg | 40 to 160 nM | < 400 nM
CCC(c1cc(S(=O)(=O)NC(=O)Nc2c3c(cc4c2CCC4)CCC3)nn1C1CC1)N(C)C (centres unmarked) [Example 24, 1-Cyclopropyl-5-(1-(dimethylamino)propyl)-N-((1,2,3,5,6,7-hexahydro-s-indacen-4-yl)carbamoyl)-1H-pyrazole-3-sulfonamide] | 1280 ng·h/mL | 13 mL/min/kg | 1 h | 0.84 L/kg | < 40 nM | < 400 nM
CC(c1cc(S(=O)(=O)NC(=O)Nc2c3c(cc4c2CCC4)CCC3)nn1C1CC1)N1CCC1 (centres unmarked) [Example 25, 5-(˜(Azetidin-1-yl)ethyl)-1-cyclopropyl-N-((1,2,3,5,6,7-hexahydro-s-indacen-4-yl)carbamoyl)-1H-pyrazole-3-sulfonamide] | 3460 ng·h/mL | 10 mL/min/kg | 1 h | 0.58 L/kg | < 40 nM | < 400 nM
O=C(Nc1c2c(cc3c1CCC3)CCC2)NS(=O)(=O)c1cc(CN2CCC2)n(C2CC2)n1 [Example 30, 5-(Azetidin-1-ylmethyl)-1-cyclopropyl-N-((1,2,3,5,6,7-hexahydro-s-indacen-4-yl)carbamoyl)-1H-pyrazole-3-sulfonamide] | 6210 ng·h/mL | 2.7 mL/min/kg | 2.8 h | 0.53 L/kg | 40 to 160 nM | 400 to 800 nM
Cn1nc(S(=O)(=O)[N-]C(=O)Nc2c3c(cc4c2CCC4)CCC3)cc1C[N+](C)(C)C [Example 44, ((1,2,3,5,6,7-Hexahydro-s-indacen-4-yl)carbamoyl)((1-methyl-5-((trimethylammonio)methyl)-1H-pyrazol-3-yl)sulfonyl)amide] | 3120 ng·h/mL | 5.3 mL/min/kg | 1.2 h | 0.21 L/kg | 640 to 2560 nM | < 400 nM
CCn1nc(S(=O)(=O)NC(=O)Nc2c3c(cc4c2CCC4)CCC3)cc1CN1CCC1 [Example 49, 5-(Azetidin-1-ylmethyl)-1-ethyl-N-((1,2,3,5,6,7-hexahydro-s-indacen-4-yl)carbamoyl)-1H-pyrazole-3-sulfonamide] | 6630 ng·h/mL | 2.7 mL/min/kg | 2.2 h | 0.34 L/kg | 40 to 160 nM | < 400 nM
CCC(c1cc(S(=O)(=O)NC(=O)Nc2c3c(cc4c2CCC4)CCC3)nn1C(C)C)N(C)C (centres unmarked) [Example 63, 5-(1-(Dimethylamino)propyl)-N-((1,2,3,5,6,7-hexahydro-s-indacen-4-yl)carbamoyl)-1-isopropyl-1H-pyrazole-3-sulfonamide] | 4010 ng·h/mL | 4.2 mL/min/kg | 0.8 h | 0.25 L/kg | < 40 nM | < 400 nM
CC(c1cc(S(=O)(=O)NC(=O)Nc2c3c(cc4c2CCC4)CCC3)nn1C(C)C)N(C)C (centres unmarked) [Example 73, 5-(1-(Dimethylamino)ethyl)-N-((1,2,3,5,6,7-hexahydro-s-indacen-4-yl)carbamoyl)-1-isopropyl-1H-pyrazole-3-sulfonamide] | 4250 ng·h/mL | 4.3 mL/min/kg | 3.5 h | 0.51 L/kg | < 40 nM | < 400 nM
COc1cc(-c2ccc3c(c2NC(=O)NS(=O)(=O)c2cc(C(=O)N(C)C)n(C)n2)CCC3)ccn1 [Example 177, 3-(N-((5-(2-Methoxypyridin-4-yl)-2,3-dihydro-1H-inden-4-yl)carbamoyl)sulfamoyl)-N,N,1-trimethyl-1H-pyrazole-5-carboxamide, sodium Salt] |  |  |  |  | < 40 nM | < 400 nM
CNCc1cc(S(=O)(=O)NC(=O)Nc2c(-c3ccnc(OC)c3)ccc3c2CCC3)nn1C1CC1 [Example 178] |  |  |  |  | 40 to 160 nM | < 400 nM
COc1cc(-c2ccc3c(c2NC(=O)NS(=O)(=O)c2cc(C4CCCN4C)n(C(C)C)n2)CCC3)ccn1 (centres unmarked) [Example 179] |  |  |  |  | 40 to 160 nM | 800 to 1600 nM
CCC(c1cc(S(=O)(=O)NC(=O)Nc2c(-c3ccnc(OC)c3)ccc3c2CCC3)nn1C(C)C)N(C)C (centres unmarked) [Example 180] |  |  |  |  | 40 to 160 nM | < 400 nM
COc1cc(-c2ccc3c(c2NC(=O)NS(=O)(=O)c2cc(CN(C)C)n(C(C)C)n2)CCC3)ccn1 [Example 181] |  |  |  |  | < 40 nM | < 400 nM
CNCc1cc(S(=O)(=O)NC(=O)Nc2c3c(cc4c2CCC4)CCC3)nn1C1CC1 [Example 183] |  |  |  |  | 40 to 160 nM | 400 to 800 nM
CC(C)n1nc(S(=O)(=O)NC(=O)Nc2c3c(cc4c2CCC4)CCC3)cc1C1CCCN1C (centres unmarked) [Example 186] |  |  |  |  | < 40 nM | 400 to 800 nM
CC(C)n1nc(S(=O)(=O)NC(=O)Nc2c3c(cc4c2CCC4)CCC3)nc1CN(C)C [Example 187] |  |  |  |  | < 40 nM | 800 to 1600 nM
